Laboratory results from patent US10786474B2, “Pharmaceutical suspensions containing drug particles, devices for their administration, and methods of their use” (SynAgile Corporation, priority 2015, dated 2020).
Values after ≈ are worked out from the molar mass of the structure shown. Values joined by “and” are separate entries in the source; they are usually repeats but may differ in a detail not shown here. Equal values may be shown once. Read-outs that look alike come from different tables or passages of the source.

Legend:
[1] = extended release tablets; various studies; cited from earlier work
[2] = in vivo; cited from earlier work
Solubility of LD = assay type: physicochemical; settings: citrate buffered solution of about pH 4.5, 25° C.
Protocol: LD is poorly soluble in most non-toxic solvents, including water and alcohols. […] LD is even less soluble in alcohols. To deliver a typical daily dose of 1,000 mg approximately 150 mL of saturated LD aqueous solution would be required, which is incompatible with the volume requirements for a drug delivery device placed in the mouth.

[3] = assumed for dissolution of orally delivered solid LD in saliva; cited from earlier work

**Q.** For `NC(=O)N1c2ccccc2C=Cc2ccccc21` [Carbamazepine], which “Fluctuation Index” value [1] is on record?
**A.** 0.31 and 0.26 and 0.47 and 0.49

**Q.** Which results are given for `CCN(CC)C(=O)/C(C#N)=C/c1cc(O)c(O)c([N+](=O)[O-])c1` [Entacapone]?
**A.** crossing of the blood-brain barrier [2]: does not cross the blood-brain barrier; physiological half-life [2]: less than 1 hour; plasma half-life [2]: 0.4 to 0.7 h

**Q.** Which results are given for `N[C@@H](Cc1ccc(O)c(O)c1)C(=O)O` [LD, levodopa]?
**A.** solubility (Solubility of LD; aqueous buffer, read-out: solubility): ~34 mM (≈ 6700 µg/mL); solubility (Solubility of LD): about 0.68 g/100 mL; solubility [3]: about 50 mg/mL

**Q.** With `CC[C@@H](C(N)=O)N1CCCC1=O` [Levetiracetam] as the compound, how does the “Fluctuation Index” value [1] read?
**A.** 1.19 and 1.27

**Q.** Which “crossing of the blood-brain barrier” value [2] does the source give for `Cc1ccc(C(=O)c2cc(O)c(O)c([N+](=O)[O-])c2)cc1` [Tolcapone] here?
**A.** crosses the barrier

**Q.** And the hepatotoxicity [2]?
**A.** limited by its hepatotoxicity

**Q.** And the plasma half-life [2]?
**A.** 2 to 3 h
